Publication PMC6811774, “Potent, selective, and subunit‐dependent activation of TRPC5 channels by a xanthine derivative” (British Journal of Pharmacology, 2019)

What was measured:
[1] = target: T1, TRPC3 (Homo sapiens, UniProt Q13507); test: [Ca2+]i selectivity assay, WT HEK 293 cells transiently transfected with hTRPC3, OAG activation; type: cell-based; settings: 300 nM AM237; 100 μM OAG
T1 construct: expressed in transfected cells; host or cells: WT HEK 293 (transient, jetPRIME)
T1 sequence (Q13507 1-921): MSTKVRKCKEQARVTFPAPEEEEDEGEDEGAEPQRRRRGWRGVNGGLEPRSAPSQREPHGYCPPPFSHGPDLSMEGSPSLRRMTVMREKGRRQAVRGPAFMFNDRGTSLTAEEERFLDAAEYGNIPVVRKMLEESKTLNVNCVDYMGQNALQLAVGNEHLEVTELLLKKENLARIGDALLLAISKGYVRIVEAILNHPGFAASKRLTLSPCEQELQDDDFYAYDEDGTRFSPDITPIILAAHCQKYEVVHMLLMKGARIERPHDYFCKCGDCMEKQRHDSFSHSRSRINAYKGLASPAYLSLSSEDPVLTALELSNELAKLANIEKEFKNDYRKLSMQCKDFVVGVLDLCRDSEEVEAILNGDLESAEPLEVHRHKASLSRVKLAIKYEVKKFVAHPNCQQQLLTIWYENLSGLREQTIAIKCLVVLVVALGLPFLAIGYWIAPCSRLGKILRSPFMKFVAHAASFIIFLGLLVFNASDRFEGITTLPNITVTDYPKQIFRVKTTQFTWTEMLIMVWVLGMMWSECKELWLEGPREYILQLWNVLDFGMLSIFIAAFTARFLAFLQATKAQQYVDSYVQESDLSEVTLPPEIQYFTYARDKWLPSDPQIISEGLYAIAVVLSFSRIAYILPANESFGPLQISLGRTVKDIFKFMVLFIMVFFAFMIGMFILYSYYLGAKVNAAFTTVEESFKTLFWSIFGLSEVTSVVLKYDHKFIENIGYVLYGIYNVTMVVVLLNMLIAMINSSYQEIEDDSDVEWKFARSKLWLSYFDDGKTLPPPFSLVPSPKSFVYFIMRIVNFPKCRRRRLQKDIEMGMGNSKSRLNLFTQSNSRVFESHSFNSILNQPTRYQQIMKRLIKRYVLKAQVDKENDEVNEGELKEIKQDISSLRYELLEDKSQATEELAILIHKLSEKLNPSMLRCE

[2] = target: T2, TRPC6 (Homo sapiens, UniProt Q9Y210); test: [Ca2+]i selectivity assay, WT HEK 293 cells transiently transfected with hTRPC6, OAG activation; type: cell-based; settings: 300 nM AM237; 100 μM OAG
T2 construct: expressed in transfected cells; host or cells: WT HEK 293 (transient, jetPRIME; pcDNA3)
T2 sequence (Q9Y210 1-931): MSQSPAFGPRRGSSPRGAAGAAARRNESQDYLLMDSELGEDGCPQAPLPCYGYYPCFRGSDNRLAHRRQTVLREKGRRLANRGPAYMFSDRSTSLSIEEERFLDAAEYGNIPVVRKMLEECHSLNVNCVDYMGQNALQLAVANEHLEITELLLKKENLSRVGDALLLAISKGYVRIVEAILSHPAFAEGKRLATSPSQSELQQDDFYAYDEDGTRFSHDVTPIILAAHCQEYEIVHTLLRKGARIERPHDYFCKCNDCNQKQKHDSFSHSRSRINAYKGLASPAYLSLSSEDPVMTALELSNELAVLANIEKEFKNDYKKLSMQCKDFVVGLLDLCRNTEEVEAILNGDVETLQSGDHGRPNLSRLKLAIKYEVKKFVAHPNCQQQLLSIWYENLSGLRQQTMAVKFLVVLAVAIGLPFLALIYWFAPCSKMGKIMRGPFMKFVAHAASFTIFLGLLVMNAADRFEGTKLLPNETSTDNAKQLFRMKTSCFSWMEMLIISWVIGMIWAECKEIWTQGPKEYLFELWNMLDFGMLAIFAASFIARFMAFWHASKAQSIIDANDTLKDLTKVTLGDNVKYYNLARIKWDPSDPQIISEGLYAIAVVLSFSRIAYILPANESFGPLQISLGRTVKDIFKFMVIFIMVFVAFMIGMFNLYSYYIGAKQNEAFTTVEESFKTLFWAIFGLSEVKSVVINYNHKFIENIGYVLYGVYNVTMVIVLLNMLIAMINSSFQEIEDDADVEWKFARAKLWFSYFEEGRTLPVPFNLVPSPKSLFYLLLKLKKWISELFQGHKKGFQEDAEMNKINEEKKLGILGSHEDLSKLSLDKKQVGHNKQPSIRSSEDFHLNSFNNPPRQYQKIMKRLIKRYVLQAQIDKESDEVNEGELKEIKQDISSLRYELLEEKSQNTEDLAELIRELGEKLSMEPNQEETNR

## Cn1c(=O)n(CCCO)c(=O)c2c1nc(Oc1ccc(Cl)c(OC(F)(F)F)c1)n2Cc1ccc(Cl)cc1 [AM237]
[1]
  Activation or inhibition of TRPC3: no activation or inhibition
[2]
  Activation or inhibition of TRPC6: no activation or inhibition
